Reference: patent publication US20230109839A1, “THERAPEUTIC AGENT FOR TAUOPATHIES” (SUMITOMO PHARMA CO., LTD., priority 2020, published 2023)
Where two headings read alike, the source gives them in different places.

Biological target: T1, human Nav1.1 (Homo sapiens, UniProt P35498)
T1 construct: host or cells: HEK293
Assay: Amplification of Nav1.1-derived voltage-gated sodium current (Nav1.1 current), automated patch clamp (Test 1)
Format: cell-based
Protocol: Test 1: Evaluation of the Amplification of Nav1.1-Derived Voltage-Gated Sodium Current (Nav1.1 Current) by Using a Cell Line Stably Expressing Human Nav1.1
(1) Preparation of Test Compound Solution
Test compounds were prepared by dissolving in DMSO at 200 times of the concentration at evaluation, and diluting the obtained solution to twice the concentration of evaluation with an extracellular fluid (135 mmol/L NaCl, 4 mmol/L KCl, 1 mmol/L MgCl2, 5 mmol/L CaCl2, 5 mmol/L Glucose, 10 mmol/L HEPES).
(2) Induction and Measurement of Nav1.1 Current
A HEK293 cell line stably expressing human Nav1.1 (cat #CYL3009, Eurofins DiscoverX Products, LLC, Human Embryonic Kidney 293) was purchased, and used in the present test. Nav1.1 current was induced by stimulating Ramp wave voltage. Detection of current which accompanied with the stimulation of voltage was carried out by a patch-clamp voltage-clamp method using HTS automated patch clamp system (SynchroPatch 768PE, Nanion Technologies GmbH, Germany). Only cells with more than 500 pA of voltage-gated sodium channel current were used for the evaluation of the activity of compounds on Nav1.1 current because there was the possibility that currents derived from endogenous voltage-gated sodium channels accounted for large proportion in cells with less than 500 pA of voltage-gated sodium channel current which was induced by stimulating Ramp wave voltage.
(3) Pharmacological Effect on Nav1.1 Current
The effect of test compounds on the amplification of Nav1.1-derived voltage-gated sodium current was evaluated by using a cell line stably expressing human Nav1.1 and HTS automated patch clamp system. In other words, test compounds were added in an extracellular fluid containing 1% DMSO, and evaluated as a change of the peak value of Nav1.1 current and the area under the curve (AUC).
(4) Method for Pharmacological Evaluation
The Nav1.1 current amplification rates of test compounds were calculated by the following formula:
Nav1.1 current amplification rate (%)=100×[the peak value of Nav1.1 current or the area under the curve after the addition of test compounds]/[the peak value of Nav1.1 current or the area under the curve before the addition of test compounds]−100

[1] = Concentration for evaluation 10 μM, HEK293 cell line stably expressing human Nav1.1
[2] = Concentration for evaluation 1 μM, HEK293 cell line stably expressing human Nav1.1
[3] = Concentration for evaluation 50 μM, HEK293 cell line stably expressing human Nav1.1
[4] = HEK293, concentration for evaluation 1 μM, HEK293 stably expressing human Nav1.1, read-out: Nav1.1 current amplification rate (%)
[5] = HEK293, Concentration for evaluation 1 μM, HEK293 cell line stably expressing human Nav1.1, read-out: Nav1.1 current amplification rate (%)
[6] = concentration for evaluation 1 μM, HEK293 stably expressing human Nav1.1
[7] = Concentration for evaluation 3 μM, HEK293 cell line stably expressing human Nav1.1

## CC1(C)CCN(c2ncc3cnn(CC(=O)Nc4ccc5cncnc5c4)c3n2)CC1 [Example 809]
Concentration for evaluation 10 μM, HEK293 stably expressing human Nav1.1
  Nav1.1 current amplification rate (%): 64%

## COc1cc(C2=CCC(C)CC2)nn(CC(=O)Nc2ccc3ocnc3c2)c1=O (racemic) [Example 449]
[1]
  Nav1.1 current amplification rate (%): 250%

## O=C(Cn1ncc2ncc(C3=CCC4(CC3)CC4(F)F)nc21)Nc1ccc2ncnn2c1 (centres unmarked) [Example 660]
[2]
  Nav1.1 current amplification rate (%): 64%

## CC1CC=C(c2ccc(=O)n(CC(=O)N3CCC(c4cccnc4)CC3)n2)CC1 (centres unmarked) [Example 262]
[1]
  Nav1.1 current amplification rate (%): 124%

## COc1cccc(F)c1-c1ncc2cnn(CC(=O)Nc3ccn4ncnc4c3)c2n1 [Example 791]
[3]
  Nav1.1 current amplification rate (%): 14%

## Cc1cc(NC(=O)Cn2ncc3cnc(N(C)C4CCCC4(F)F)nc32)cc2ncnn12 (centres unmarked) [Example 839]
[4]
  activation at 1 µM: 143%

## Cc1cc(-c2ncc3cnn(CC(=O)Nc4ccn5ncnc5c4)c3n2)oc1C [Example 781]
[3]
  Nav1.1 current amplification rate (%): 15%

## Cc1ccc(N2CCN(C(=O)Cn3nc(C4=CCC(C)CC4)ccc3=O)CC2)cn1 (centres unmarked) [Example 396]
[1]
  Nav1.1 current amplification rate (%): 136%

## CN(c1ncc2cnn(CC(=O)Nc3cnc4cccnc4c3)c2n1)C1CC(C)(C)C1 [Example 844]
[4]
  activation at 1 µM: 221%

## Cc1nc2cc(NC(=O)Cn3ncc4ncc(N(C)C5CCCC5)nc43)ccc2o1 [Example 675]
[2]
  Nav1.1 current amplification rate (%): 36%

## CC1CC=C(c2ccc(=O)n(CC(=O)Nc3ccnc(N4CCOCC4)c3F)n2)CC1 (centres unmarked) [Example 383]
[2]
  Nav1.1 current amplification rate (%): 84%

## CC1CC=C(c2ccc(=O)n(CC(=O)N3CC=C(c4cccnc4)CC3)n2)CC1 (centres unmarked) [Example 402]
[1]
  Nav1.1 current amplification rate (%): 323%

## CC1CC=C(c2ccc3cnn(CC(=O)Nc4ccn5ccnc5c4)c3c2)CC1 (centres unmarked) [Example 894]
HEK293, concentration for evaluation 10 μM, HEK293 stably expressing human Nav1.1, read-out: Nav1.1 current amplification rate (%)
  activation at 10 µM: 151%

## COC1CN(Cc2cccc3c2CCN3C(=O)Cn2nc(C3=CCC(C)CC3)ccc2=O)C1 (centres unmarked) [Example 274]
[2]
  Nav1.1 current amplification rate (%): 60%

## Cc1cnc(-c2cnc3cnn(CC(=O)Nc4ccn5ncnc5c4)c3n2)s1 [Example 575, 2-[6-(5-Methyl-1,3-thiazol-2-yl)-1H-pyrazolo[3,4-b]pyrazin-1-yl]-N-([1,2,4]triazolo[1,5-a]pyridin-7-yl)acetamide]
[5]
  activation at 1 µM: 84%

## CC1CCN(c2ccc(=O)n(CC(=O)Nc3ccc4scnc4c3)n2)CC1 [Example 87]
[1]
  Nav1.1 current amplification rate (%): 255%

## CC1CC=C(c2ccc(=O)n(CC(=O)N3CCN(c4cncc(C(F)(F)F)c4)CC3)n2)CC1 (centres unmarked) [Example 401]
[1]
  Nav1.1 current amplification rate (%): 286%

## CN(CC1(C)CC1)c1ncc2cnn(CC(=O)Nc3ccn4ncnc4c3)c2n1 [Example 804]
[6]
  Nav1.1 current amplification rate (%): 93%

## O=C(Cn1ncc2cnc(C3=CCCCC3)nc21)Nc1ccn2ncnc2c1 [Example 786]
[2]
  Nav1.1 current amplification rate (%): 34%

## CN(c1cnc2cnn(CC(=O)Nc3ccn4ccnc4c3)c2n1)C1CCC1 [Example 685]
[2]
  Nav1.1 current amplification rate (%): 41%

## Cc1nc2cc(NC(=O)Cn3nc(C4=CCC(C)CC4)ccc3=O)cnc2s1 (centres unmarked) [Example 326]
[7]
  Nav1.1 current amplification rate (%): 132%

## Cc1ncc(-c2cncc(NC(=O)Cn3nc(C4=CCC(C)CC4)ccc3=O)c2)o1 (centres unmarked) [Example 380]
[2]
  Nav1.1 current amplification rate (%): 82%

## CC1CC=C(c2ccc(=O)n(CC(=O)N3CCc4cc(-c5cccnc5)ccc43)n2)CC1 (centres unmarked) [Example 298]
[2]
  Nav1.1 current amplification rate (%): 51%

## CC1CCN(c2ncc3cnn(CC(=O)Nc4ccn5ncnc5c4)c3n2)CC1 [Example 763]
[2]
  Nav1.1 current amplification rate (%): 98%

## CN(c1cnc2cnn(CC(=O)Nc3ccc(-n4ccnc4)nc3)c2n1)C1CCCC1 [Example 682]
[2]
  Nav1.1 current amplification rate (%): 53%

## Cc1cc(NC(=O)Cn2ncc3ccc(N(C)C4CC4)nc32)cc2ncnn12 [Example 886]
[4]
  activation at 1 µM: 125%

## COc1cc(C2=CCC(C(F)(F)F)CC2)nn(CC(=O)N2CCc3c(N4CCOCC4)cccc32)c1=O (centres unmarked) [Example 474]
[1]
  Nav1.1 current amplification rate (%): 235%

## CC1CC=C(c2ccc(=O)n(CC(=O)N3CCc4c3ccnc4C3=CCNC3)n2)CC1 (centres unmarked) [Example 281]
[1]
  Nav1.1 current amplification rate (%): 40%

## O=C(Cn1ncc2cnc(N3CCC4C(C3)C4(F)F)nc21)Nc1ccc2ncnn2c1 (centres unmarked) [Example 816]
[6]
  Nav1.1 current amplification rate (%): 13%

## CC1CC=C(c2cnc3cnn(CC(=O)Nc4ccn5ncnc5c4)c3n2)CC1 (centres unmarked) [Example 896, 2-[6-(4-methylcyclohex-1-en-1-yl)-1H-pyrazolo[3,4-b]pyrazin-1-yl]-N-([1,2,4]triazolo[1,5-a]pyridin-7-yl)acetamide]
[6]
  Nav1.1 current amplification rate (%): 241%

## CC1CC=C(c2ccc(=O)n(CC(=O)Nc3ccc4nccnc4c3)n2)CC1 (centres unmarked) [Example 354]
[2]
  Nav1.1 current amplification rate (%): 123%

## CC1CC=C(c2ccc(=O)n(CC(=O)N3CCc4c(N5CCOCC5)cccc43)n2)C1 (centres unmarked) [Example 477]
[1]
  Nav1.1 current amplification rate (%): 398%

## CC(C)N(C)c1cnc2cnn(CC(=O)Nc3ccc4ncnn4c3)c2n1 [Example 665]
[3]
  Nav1.1 current amplification rate (%): 63%

## CC1CCN(c2ccc(=O)n(CC(=O)Nc3ccc4oc(=O)n(C)c4c3)n2)CC1 [Example 81]
[1]
  Nav1.1 current amplification rate (%): 69%

## CN(CC1CC1)c1cnc2cnn(CC(=O)Nc3ccc(C#N)nc3)c2n1 [Example 748]
[5]
  activation at 1 µM: 17%

## O=C(Cn1ncc2ccc(N3CCC4(CC3)CC4)nc21)Nc1ccn2ncnc2c1 [Example 855]
[6]
  Nav1.1 current amplification rate (%): 93%

## N#Cc1ccc(NC(=O)Cn2ncc3ncc(N4CCC5(CC5)C(F)(F)C4)nc32)nc1 [Example 757]
[5]
  activation at 1 µM: 10%

## CC1CC=C(c2ccc3cnn(CC(=O)N4CCN(c5cccnc5)CC4)c3n2)CC1 (centres unmarked) [Example 881]
[4]
  activation at 1 µM: 446%

## CC1CC=C(c2ccc(=O)n(CC(=O)N3CC=C(c4nccc5occc45)CC3)n2)CC1 (centres unmarked) [Example 404]
[1]
  Nav1.1 current amplification rate (%): 42%

## N#Cc1ccc(NC(=O)Cn2nc(N3CC4CC4C3)ccc2=O)cc1 (centres unmarked) [Example 18]
[1]
  Nav1.1 current amplification rate (%): 11%

## CCCCN(C)c1ccc(=O)n(CC(=O)Nc2ccc(C#N)cc2)n1 [Example 30]
[1]
  Nav1.1 current amplification rate (%): 77%

## CC1CCN(c2cnc3cnn(CC(=O)Nc4ccc5ncnn5c4)c3n2)CC1(F)F (centres unmarked) [Example 658]
[2]
  Nav1.1 current amplification rate (%): 33%

## N#Cc1ccc(NC(=O)Cn2nc(N3CCCCCCC3)ccc2=O)cc1 [Example 12]
[1]
  Nav1.1 current amplification rate (%): 241%

## CC1(C)CC=C(c2ccc(=O)n(CC(=O)N3CCN(c4cccnc4)CC3)n2)CC1 [Example 440]
[1]
  Nav1.1 current amplification rate (%): 196%

## CC1CC=C(c2ccc(=O)n(CC(=O)N3CC=C(c4ccccc4)CC3)n2)CC1 (centres unmarked) [Example 257]
[7]
  Nav1.1 current amplification rate (%): 45%

## CN(CC1CCC1)c1ncc2cnn(CC(=O)Nc3ccn4ncnc4c3)c2n1 [Example 798]
[6]
  Nav1.1 current amplification rate (%): 193%

## COc1cc(=O)n(CC(=O)Nc2ccc3ocnc3c2)nc1C1=CCC(C)(C)CC1 [Example 451]
[1]
  Nav1.1 current amplification rate (%): 365%
